The record followed here is patent US20130281311A1, “SPECIFIC BIOMARKER FOR IDENTIFICATON OF EXPOSURE TO PROPIONALDEHYDE AND THE METHOD OF IDENTIFICATION USING THE SAME” (KOREA INSTITUTE OF SCIENCE AND TECHNOLOGY, priority 2012, published 2013).

Data set [1] can be described thus: Cytotoxicity test (MTT assay). The class given is cell-based, human. As to conditions: human, A549 cells; A549 cell line, 48 hours, MTT, OD540; read-out: IC20 (the concentration showing 20% survival rate). The protocol: (§1) A549 cells (Korean Cell Line Bank), the human lung cancer tissue derived cell line, were cultured in 100 mm dish containing RPMI (Gibro-BRL, USA) supplemented with 10% FBS until the confluency reached 80%. The present inventors selected propionaldehyde, one of aldehydes among many volatile organic compounds exposed in environment, as a target material based on the previous studies and reports, and then dissolved in DMSO (dimethyl sulfoxide). The concentration of vehicle was up to 0.1% in every experiment.
(§2) MTT assay was performed with A549 cell line according to the method of Mossman, et al (J. Immunol. Methods, 65, 55-63, 1983).
(§3) Particularly, the cells were distributed in 24-well plate (3.5×10^4 cells/well) containing RPMI (Gibro-BRL, USA) and then treated with propionaldehyde dissolved in DMSO. 48 hours later, 5 mg/ml of MTT (3-4,5-dimethylthiazol-2,5-diphenyltetra zolium bromide) was added thereto, followed by culture at 37° C. for 3 hours. Then, the medium was discarded and the formed formazan crystal was dissolved in […] of DMSO, which was aliquoted in 96-well plate. OD540 was measured.

Data set [2] concerns A549 cells. The experiment in a line: Cytotoxicity test (MTT assay). The class given is cell-based, human. As to conditions: A549, result in words. The protocol: as §1, §2, §3
In general terms: Tetrazolium assays rely on reduction of a dye to a coloured formazan, in cell work by metabolically active cells.

The test system of data set [3] is AGT (angiotensinogen; NM_000029). The experiment in a line: Oligo microarray gene expression in A549 cells, AGT. The class given is cell-based, human. As to conditions: A549, 48 hours at the concentration of Example 1-2, Cy5/Cy3 ratio. The protocol:
(§4) A549 cells were distributed in 6-well plate at the density of 25×10^4 cells/ml, to which propionaldehyde was treated for 48 hours at the concentration determined in Example <1-2>. Total RNA was extracted from the cells by using trizol reagent according to the manufacturer's protocol (Invitrogen life technologies, USA), followed by purification by using RNease mini kit (Qiagen, USA). Genomic DNA was eliminated by using RNase-free DNase set (Qiagen, USA) during the RNA purification. The amount of total RNA was measured with spectrophotometer, and the concentration was confirmed by ND-1000 Spectrophotometer (Thermo Fisher Scientific Inc., USA) and Agilent 2100 Bioanalyzer (Agilent).
(§5) For oligomicroarray analysis, cDNA was synthesized by using the total RNA obtained from the experimental group treated with propionaldehyde prepared in Example <2-1>. 30 μg of the obtained total RNA and 2 μg of oligo (dT) primer (1 μg/μl) were mixed together, followed by reaction at 65° C. for 10 minutes, which was transferred into ice for annealing. […]
(§6) Hybridization images on the slide were scanned with Agilent C scanner (Agilent technologies, CA, USA). […] To obtain gene expression rate, the scanned images were analyzed by using Agilent Feature Extraction 10.7.3.1 (Agilent technologies, CA, USA). […]

In data set [4] the test system is LPAR1 (lysophosphatidic acid receptor 1; NM_057159). The experiment in a line: Oligo microarray gene expression in A549 cells, LPAR1. The class given is cell-based, human. Conditions: A549, 48 hours at the concentration of Example 1-2, Cy5/Cy3 ratio. The protocol: as §4, §5, §6
For data set [5], the system named is SECTM1 (secreted and transmembrane 1; NM_003004). The experiment in a line: Oligo microarray gene expression in A549 cells, SECTM1. Conditions: A549, 48 hours at the concentration of Example 1-2, Cy5/Cy3 ratio. Format: cell-based, human. The protocol: as §4, §5, §6
In data set [6] the test system is TNFSF10 (tumor necrosis factor (ligand) superfamily, member 10; NM_003810). The experiment in a line: Oligo microarray gene expression in A549 cells, TNFSF10. Format: cell-based, human. As to conditions: A549, 48 hours at the concentration of Example 1-2, Cy5/Cy3 ratio. The protocol:
as §4, §5, §6

For data set [7], the system named is HMOX1 (heme oxygenase 1; NM_002133). The experiment in a line: Oligo microarray gene expression in A549 cells, HMOX1. The class given is cell-based, human. Conditions: A549, 48 hours at the concentration of Example 1-2, Cy5/Cy3 ratio. The protocol: as §4, §5, §6
For data set [8], the system named is A549 cells. The experiment in a line: Human whole genome oligo microarray, genome-wide expression change. As to conditions: A549, 48 hours. The class given is cell-based. The protocol:
In a preferred embodiment of the present invention, to screen a biomarker for the identification of propionaldehyde specific exposure, the present inventors treated propionaldehyde to the human lung cancer tissue derived cell line A549 and then investigated cytotoxicity therein. […] Based on the result of that experiment, the concentration of propionaldehyde was determined. Propionaldehyde was treated to the human lung cancer tissue derived cell line at the determined concentration. From the cell line treated with propionaldehyde, mRNA was extracted, followed by synthesis of cDNA which was labeled with fluorescein (Cy5). The control not treated with propionaldehyde was labeled with Cy3. The fluorescein-labeled cDNA was hybridized with 8×60 k oligomicroarray chip [Human whole genome oligo microarray (Agilent, USA)], followed by scanning fluorescence image to analyze gene expression patterns (see FIG. 2). […] 5 kinds of genes whose expressions were increased or decreased specifically by propionaldehyde alone among […] (butylaldehyde, valeradehyde, hexanal, heptanal, octanal, and propionaldehyde) were selected by using real-time quantitative PCR (see FIG. 3, Table 3, and Table 4). […]
A549 cells were distributed in 6-well plate at the density of 25×10^4 cells/ml, to which propionaldehyde was treated for 48 hours at the concentration determined in Example <1-2>. […]

Data set [9] deals with AGT, LPAR1, SECTM1, TNFSF10, HMOX1. The experiment in a line: Quantitative real-time RT-PCR of the 5 marker genes. The class given is cell-based, human. Conditions: endogenous control MDH1; result in words. The protocol:
At that time, to confirm the propionaldehyde specific expression changes, the said genes were investigated with their expression patterns using the additional 5 aldehydes listed in Table 3.
Particularly, cDNA was synthesized by performing reverse transcription by using oligo dT primer and Superscript kit (Omniscipt™ kit, Qiagen, Co., USA). 0.2 μl of the synthesized cDNA was mixed with 3.8 μl of water, 0.5 μl of sense primer, 0.5 μl of anti-sense primer, and 5 μl of SYBR Green I staining supermix (Bio-rad, USA), which was loaded in PCR tube, followed by reaction in My IQ real-time PCR machine designed to execute reaction as follows: step 1, 95° C. for 3 minutes; step 2 (45 cycles), step 2-1, 95° C. for 10 seconds; step 2-2, 57° C. for 45 seconds; step 3, 95° C. for 1 minute; step 4, 55° C. for 1 minute; step 5 (80 cycles), 55° C. for 10 seconds. The PCR product was stained with SYBR Green I (Bio-rad, USA) to quantify thereof. SYBR Green I staining is the method taking advantage of intercalating with double-stranded DNA, and thus the more double-stranded DNA is produced, the stronger the fluorescence intensity is obtained during PCR. Primers for the target gene used for PCR and the endogenous control (MDH1) were added to SYBR Green master-mix, followed by PCR. […] Then, PCR was performed and the result was analyzed by using quantitative software.
A general note: Real-time PCR tracks product formation cycle by cycle.

For the molecule `CCC=O` [propionaldehyde], the IC20 at 48 h in data set [1] came out at 2.5 mM. Besides, the “cytotoxicity in the human lung cancer tissue derived cell line” value in data set [2] is “had cytotoxicity”. The “Median ratio of microarray by propionaldehyde exposure, AGT” value in data set [3] was determined as 0.55. The “Median ratio of microarray by propionaldehyde exposure, LPAR1” value in [4] is on record as 0.62. The “Median ratio of microarray by propionaldehyde exposure, SECTM1” value in data set [5] is listed as 0.63. In addition, the “Median ratio of microarray by propionaldehyde exposure, TNFSF10” value in [6] turned out to be 0.65. Moreover, the “Median ratio of microarray by propionaldehyde exposure, HMOX1” value in data set [7] is reported as 1.52. For the same molecule, the “genes showing at least 1.5 fold higher expression (Cy5/Cy3 ratio)” value in data set [8] (900 genes out of 42,405) was 2.12%. In addition, the “genes showing lower expression (Cy5/Cy3 ratio lower than 0.66)” value in data set [8] (1,522 genes out of 42,405) is 3.59%. The “expression patterns of the 5 genes by real-time RT-PCR” value in data set [9] is recorded as “very similar to the results of microarray chip analysis”.
